Measurements as given in patent publication US10076519B2 (CYTOKINETICS, INC., priority 2010, dated 2018).

Each compound was assayed on rabbit skeletal myofibrils (fast skeletal myofibrils) (assay: Activation of fast skeletal myofibrils (PUMA assay, PK/LDH-coupled ATPase at pCa25)). Settings: AC1.4 determined according to the procedure of Example 39; reported as class symbols.
Assay type: biochemical
Summary of the method: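 Detergent-washed rabbit psoas myofibrils (~90% fast fibres, calcium-regulated) assayed at calcium giving 25% of maximal ATPase rate (pCa25). ADP turnover coupled via pyruvate kinase/lactate dehydrogenase to NADH oxidation, read at 340 nm. Buffer 12 mM PIPES, 2 mM MgCl2, 1 mM DTT, pH 6.8; AC1.4 values derived.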
For `N#Cc1cncc(-c2ccc(NCC3(c4ccc(F)cc4)CC3)nn2)c1` [5-[6-({[(4-fluorophenyl)cyclopropyl]meth-yl}amino)pyridazin-3-yl]pyridine-3-carbonitrile], the “Mean AC1.4” value was “B (B=1-10 uM)”.
In the case of `NC(=O)c1cncc(-c2ccc(NCC3(c4ccc(F)cc4)CC3)nn2)c1` [5-[6-({[(4-fluorophenyl)cyclopropyl]meth-yl}amino)pyridazin-3-yl]pyridine-3-carboxamide], the “Mean AC1.4” value is reported as “B (B=1-10 uM)”.
With `CC(C)(CNc1nnc(-c2cccc(C(N)=O)c2)cc1C(N)=O)c1ccc(F)cc1` [6-(3-carbamoylphenyl)-3-{[2-(4-fluorophenyl)-2-methylpropyl]amino}pyridazine-4-carboxamide] the “Mean AC1.4” value was “B (B=1-10 uM)”.
With `CC(C)(CNc1ccc(-c2ccc3[nH]c(=O)[nH]c(=O)c3c2)nn1)c1ccc(F)cc1` [6-(6-{[2-(4-fluorophenyl)-2-methylpropyl]amino}pyridazin-3-yl)-1,3-dihydroquinazoline-2,4-dione] the “Mean AC1.4” value was “B (B=1-10 uM)”.
`CC(C)(CNc1ccc(-c2ccc3[nH]c(=O)c(=O)[nH]c3c2)nn1)c1ccc(F)cc1` [6-(6-{[2-(4-fluorophenyl)-2-methylpropyl]amino}pyridazin-3-yl)-1,4-dihydroquinoxaline-2,3-dione] was tested, and the “Mean AC1.4” value was “A (A=<1 uM)”.
In the case of `CC(C)(CNc1ccc(-c2ccc3c(c2)NC(=O)C3(C)C)nn1)c1ccc(F)cc1` [6-(6-{[2-(4-fluorophenyl)-2-methylpropyl]amino}pyridazin-3-yl)-3,3-dimethylindolin-2-one], the “Mean AC1.4” value is reported as “D (D=>20 uM)”.
`CC(C)(CNc1ccc(-c2cccc(O)n2)nn1)c1ccc(F)cc1` [6-(6-{[2-(4-fluorophenyl)-2-methylpropyl]amino}pyridazin-3-yl)pyridin-2-ol] was tested, and the “Mean AC1.4” value was “B (B=1-10 uM)”.
`CC(C)(CNc1ccc(-c2ccc(O)cn2)nn1)c1ccc(F)cc1` [6-(6-{[2-(4-fluorophenyl)-2-methylpropyl]amino}pyridazin-3-yl)pyridin-3-ol] was tested, and the “Mean AC1.4” value was “A (A=<1 uM)”.
In the case of `CC(C)(CNc1ccc(-c2cccc(C(N)=O)n2)nn1)c1ccc(F)cc1` [6-(6-{[2-(4-fluorophenyl)-2-methylpropyl]amino}pyridazin-3-yl)pyridine-2-carboxamide], the “Mean AC1.4” value is reported as “B (B=1-10 uM)”.
For `CC(C)(CNc1ccc(-c2ccc(C(N)=O)cn2)nn1)c1ccc(F)cc1` [6-(6-{[2-(4-fluorophenyl)-2-methylpropyl]amino}pyridazin-3-yl)pyridine-3-carboxamide], the “Mean AC1.4” value was “B (B=1-10 uM)”.
With `Oc1cccc(C2(CNc3ccc(-c4ccc5[nH]ncc5c4)nn3)CCC2)n1` [6-({[(6-(1H-indazol-5-yl)pyridazin-3-yl)amino]methyl}cyclobutyl) pyridin-2-ol] the “Mean AC1.4” value was “D (D=>20 uM)”.
In the case of `Oc1cccc(C2(CNc3ccc(-c4ccc5cn[nH]c5c4)nn3)CCC2)n1` [6-({[(6-(1H-indazol-6-yl)pyridazin-3-yl)amino]methyl}cyclobutyl) pyridin-2-ol], the “Mean AC1.4” value is reported as “D (D=>20 uM)”.
For `CN1CCN(C(=O)c2ccc(NCC(C)(C)c3ccc(F)cc3)nn2)CC1` [6-{[2-(4-fluorophenyl)-2-methylpropyl]amino}pyridazin-3-yl 4-methylpiperazinyl ketone], the “Mean AC1.4” value was “D (D=>20 uM)”.
With `CC(C)(CNc1ccc(C(=O)N2CCOCC2)nn1)c1ccc(F)cc1` [6-{[2-(4-fluorophenyl)-2-methylpropyl]amino}pyridazin-3-yl morpholin-4-yl ketone] the “Mean AC1.4” value was “D (D=>20 uM)”.
In the case of `CC(C)(CNc1ccc(C(=O)N2CCNCC2)nn1)c1ccc(F)cc1` [6-{[2-(4-fluorophenyl)-2-methylpropyl]amino}pyridazin-3-yl piperazinyl ketone], the “Mean AC1.4” value is reported as “D (D=>20 uM)”.
In the case of `CC(C)(CNc1ccc(C#N)nn1)c1ccc(F)cc1` [6-{[2-(4-fluorophenyl)-2-methylpropyl]amino}pyridazine-3-carbonitrile], the “Mean AC1.4” value is reported as “D (D=>20 uM)”.
In the case of `CC(C)(CNc1ccc(C(N)=O)nn1)c1ccc(F)cc1` [6-{[2-(4-fluorophenyl)-2-methylpropyl]amino}pyridazine-3-carboxamide], the “Mean AC1.4” value is reported as “C (C=10-20 uM)”.
In the case of `CC(C)(CNc1ccc(C(=O)O)nn1)c1ccc(F)cc1` [6-{[2-(4-fluorophenyl)-2-methylpropyl]amino}pyridazine-3-carboxylic acid], the “Mean AC1.4” value is reported as “D (D=>20 uM)”.

Same assay, conditions: median AC1.4 class, procedure of Example 39
With `O=c1[nH]nc(-c2cnc(-c3ccc(NCC4(c5ncccc5F)CCC4)nn3)s2)o1` [5-{2-[6-({[(3-fluoro-2-pyridyl)cyclobutyl]methyl}ami-no)pyridazin-3-yl]-1,3-thiazol-5-yl}-1,3,4-oxadiazolin-2-one] the “Mean AC1.4” value was “B (B=1-10 uM)”.
`N#Cc1ccc(NCC2(c3ncccc3F)CCC2)nn1` [6-((1-(3-Fluoropyridin-2-yl)cyclobutyl)methylamino)pyridazine-3-carbonitrile] was tested, and the “Mean AC1.4” value was “D (D=>20 uM)”.
`NC(=O)c1ccc(F)c(-c2ccc(NC3(c4cccc(C(N)=O)n4)CCC3)nn2)c1` [6-({[6-(3-carbamoyl-6-fluorophenyl)pyridazin-3-yl]amino}cyclobutyl)pyridine-2-carboxamide] was tested, and the “Mean AC1.4” value was “D (D=>20 uM)”.
For `NC(=O)c1csc2nc(-c3ccc(NC[C@]4(c5ncccc5F)C[C@H](F)C4)nn3)cn12` [6-[6-({[3-fluoro-1-(3-fluoro(2-pyridyl))cyclobutyl]methyl}ami-no)pyridazin-3-yl]imidazo[2,1-b]1,3-thiazoline-3-carboxamide], the “Mean AC1.4” value was “A (A=<1 uM)”.
For `NC(=O)c1csc2nc(-c3ccc(NCC4(c5ncccc5F)CCC4)nn3)cn12` [6-[6-({[(3-fluoro-2-pyridyl)cyclobutyl]methyl}ami-no)pyridazin-3-yl]imidazo[2,1-b]1,3-thiazoline-3-carboxamide], the “Mean AC1.4” value was “A (A=<1 uM)”.
In the case of `O=C(O)c1csc2nc(-c3ccc(NCC4(c5ncccc5F)CCC4)nn3)cn12` [6-[6-({[(3-fluoro-2-pyridyl)cyclobutyl]methyl}ami-no)pyridazin-3-yl]imidazo[2,1-b]1,3-thiazoline-3-carboxylic acid], the “Mean AC1.4” value is reported as “A (A=<1 uM)”.
For `N#Cc1cncc(-c2ccc(NCC3(c4ncccc4F)CCC3)nn2)n1` [6-[6-({[(3-fluoro-2-pyridyl)cyclobutyl]methyl}ami-no)pyridazin-3-yl]pyrazine-2-carbonitrile], the “Mean AC1.4” value was “B (B=1-10 uM)”.
With `NC(=O)c1cncc(-c2ccc(NCC3(c4ncccc4F)CCC3)nn2)n1` [6-[6-({[(3-fluoro-2-pyridyl)cyclobutyl]methyl}ami-no)pyridazin-3-yl]pyrazine-2-carboxamide] the “Mean AC1.4” value was “C (C=10-20 uM)”.
For `NC(=O)c1cc(-c2ccc(NCC3(c4ncccc4F)CCC3)nn2)ncn1` [6-[6-({[(3-fluoro-2-pyridyl)cyclobutyl]methyl}ami-no)pyridazin-3-yl]pyrimidine-4-carboxamide], the “Mean AC1.4” value was “B (B=1-10 uM)”.
In the case of `CC(C)(Nc1ccc(-c2ccccc2)nn1)c1ccccc1` [(1-methyl-1-phenylethyl)(6-phenylpyridazin-3-yl)amine], the “Mean AC1.4” value is reported as “B (B=1-10 uM)”.

Same assay, conditions: median AC1.4 reported as class; procedure of Example 39
With `CC(=O)N1CCc2nc(-c3ccc(NCC4(c5ncccc5F)CCC4)nn3)sc2C1` [5-acetyl-2-[6-({[(3-fluoro(2-pyridyl))cyclobutyl]methyl}ami-no)pyridazin-3-yl]-4,5,6,7-tetrahydro-1,3-thiazolo[5,4-c]pyridine] the “Mean AC1.4” value was “D (D=>20 uM)”.
`NC(=O)c1cc(N)cc(-c2ccc(NC[C@]3(c4ncccc4F)C[C@H](F)C3)nn2)c1` [5-amino-3-[6-({[3-fluoro-1-(3-fluoro(2-pyridyl))cyclobutyl]methyl}ami-no)pyridazin-3-yl]benzamide] was tested, and the “Mean AC1.4” value was “B (B=1-10 uM)”.
For `N#Cc1cc(N)cc(-c2ccc(NC[C@]3(c4ncccc4F)C[C@H](F)C3)nn2)c1` [5-amino-3-[6-({[3-fluoro-1-(3-fluoro(2-pyridyl))cyclobutyl]methyl}ami-no)pyridazin-3-yl]benzenecarbonitrile], the “Mean AC1.4” value was “A (A=<1 uM)”.
In the case of `N#Cc1cc(Br)cc(-c2ccc(NCC3(c4ncccc4F)CCC3)nn2)c1O` [5-bromo-3-[6-({[(3-fluoro(2-pyridyl))cyclobutyl]methyl}ami-no)pyridazin-3-yl]-2-hydroxybenzenecarbonitrile], the “Mean AC1.4” value is reported as “A (A=<1 uM)”.
With `NC(=O)c1cc(Cl)cc(-c2ccc(NC[C@]3(c4ncccc4F)C[C@H](F)C3)nn2)c1` [5-chloro-3-[6-({[3-fluoro-1-(3-fluoro(2-pyridyl))cyclobutyl]methyl}ami-no)pyridazin-3-yl]benzamide] the “Mean AC1.4” value was “B (B=1-10 uM)”.
With `NC(=O)c1cn[nH]c1NC(=O)c1ccc(NCC2(c3ncccc3F)CCC2)nn1` [5-{[6-({[(3-fluoro-2-pyridyl)cyclobutyl]methyl}ami-no)pyridazin-3-yl]carbonylamino}pyrazole-4-carboxamide] the “Mean AC1.4” value was “C (C=10-20 uM)”.
With `CC(C)(Nc1ccc(-c2cn3c(C(N)=O)csc3n2)nn1)c1ncccc1Cl` [6-(6-{[1-(3-chloro(2-pyridyl))-isopropyl]amino}pyridazin-3-yl)imidazo[2,1-b]1,3-thiazoline-3-carboxamide] the “Mean AC1.4” value was “B (B=1-10 uM)”.
In the case of `NC(=O)c1ccc(NCC2(c3ncccc3F)CCC2)nn1` [6-({[(3-fluoro-2-pyridyl)cyclobutyl]methyl}ami-no)pyridazine-3-carboxamide], the “Mean AC1.4” value is reported as “D (D=>20 uM)”.
`O=C(O)c1ccc(NCC2(c3ncccc3F)CCC2)nn1` [6-({[(3-fluoro-2-pyridyl)cyclobutyl]methyl}ami-no)pyridazine-3-carboxylic acid] was tested, and the “Mean AC1.4” value was “D (D=>20 uM)”.
`O=C1NCc2ccc(-c3ccc(NC[C@]4(c5ncccc5F)C[C@H](F)C4)nn3)cc21` [6-[6-({[3-fluoro-1-(3-fluoro(2-pyridyl))cyclobutyl]methyl}ami-no)pyridazin-3-yl]isoindolin-1-one] was tested, and the “Mean AC1.4” value was “B (B=1-10 uM)”.
`O=c1cc(-c2ccc(NCC3(c4ncccc4F)CCC3)nn2)nc2[nH]ccn12` [7-[6-({[(3-fluoro-2-pyridyl)cyclobutyl]methyl}ami-no)pyridazin-3-yl]-4-hydro-4-imidazolino[1,2-a]pyrimidin-5-one] was tested, and the “Mean AC1.4” value was “B (B=1-10 uM)”.
